Experimental data: PubChem BioAssay (NCI)
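The compound was tested at five concentrations on cells cultured in 96-well plates, with a 48-hour exposure period. GI50 is the concentration that inhibits growth by half. Definition used: TGI = concentration required for complete inhibition of growth.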

What was measured:
Experiment in all cases: DTP human tumour cell line panel, 48 h
HS 578T breast = tested on: HS 578T breast
K-562 leukemia = tested on: K-562 leukemia
MALME-3M melanoma = tested on: MALME-3M melanoma
SK-MEL-2 melanoma = tested on: SK-MEL-2 melanoma
RPMI-8226 leukemia = tested on: RPMI-8226 leukemia
IGROV1 ovarian = tested on: IGROV1 ovarian
SF-268 CNS = tested on: SF-268 CNS
SR leukemia = tested on: SR leukemia
MDA-MB-468 breast = tested on: MDA-MB-468 breast
M14 melanoma = tested on: M14 melanoma
BT-549 breast = tested on: BT-549 breast
SK-MEL-5 melanoma = tested on: SK-MEL-5 melanoma
SNB-75 CNS = tested on: SNB-75 CNS
NCI-H23 lung = tested on: NCI-H23 lung
EKVX NSCLC = tested on: EKVX NSCLC
A498 renal = tested on: A498 renal
SNB-19 CNS = tested on: SNB-19 CNS
HOP-62 NSCLC = tested on: HOP-62 NSCLC
SN12C renal = tested on: SN12C renal
HL-60(TB) leukemia = tested on: HL-60(TB) leukemia
CAKI-1 renal = tested on: CAKI-1 renal
UO-31 renal = tested on: UO-31 renal
KM12 colon = tested on: KM12 colon
U251 CNS = tested on: U251 CNS
MOLT-4 leukemia = tested on: MOLT-4 leukemia
MDA-MB-231 breast = tested on: MDA-MB-231 breast
MDA-MB-435 = tested on: MDA-MB-435
SK-MEL-28 melanoma = tested on: SK-MEL-28 melanoma
NCI-H226 lung = tested on: NCI-H226 lung
HCT-15 colon = tested on: HCT-15 colon
PC-3 prostate = tested on: PC-3 prostate
OVCAR-5 ovarian = tested on: OVCAR-5 ovarian
NCI-H460 lung = tested on: NCI-H460 lung
RXF 393 renal = tested on: RXF 393 renal
ACHN renal = tested on: ACHN renal
TK-10 renal = tested on: TK-10 renal
786-0 renal = tested on: 786-0 renal
LOX IMVI melanoma = tested on: LOX IMVI melanoma
SF-295 CNS = tested on: SF-295 CNS
MCF7 breast = tested on: MCF7 breast
SF-539 CNS = tested on: SF-539 CNS
OVCAR-3 ovarian = tested on: OVCAR-3 ovarian
COLO 205 colon = tested on: COLO 205 colon
HCC-2998 colon = tested on: HCC-2998 colon
SK-OV-3 ovarian = tested on: SK-OV-3 ovarian
A549 NSCLC = tested on: A549 NSCLC
HT29 colon = tested on: HT29 colon
UACC-62 melanoma = tested on: UACC-62 melanoma
UACC-257 melanoma = tested on: UACC-257 melanoma

## CSc1ccc(NC(=O)c2ccc3nn(/C(C#N)=C/c4ccccn4)nc3c2)cc1
HS 578T breast
  GI50: 2200 nM
  TGI: 7.68 µM
K-562 leukemia
  GI50: 681 nM
  TGI: 5.05 µM
MALME-3M melanoma
  GI50: 1450 nM
  TGI: 2830 nM
SK-MEL-2 melanoma
  GI50: 1880 nM
  TGI: 3.53 µM
RPMI-8226 leukemia
  GI50: 1770 nM
  TGI: 5.71 µM
IGROV1 ovarian
  GI50: 1740 nM
  TGI: 3.36 µM
SF-268 CNS
  GI50: 2360 nM
  TGI: 6.21 µM
SR leukemia
  GI50: 1150 nM
  TGI: 7.6 µM
MDA-MB-468 breast
  GI50: 1080 nM
  TGI: 2.59 µM
M14 melanoma
  GI50: 1780 nM
  TGI: 3.3 µM
BT-549 breast
  GI50: 1670 nM
  TGI: 3.11 µM
SK-MEL-5 melanoma
  GI50: 1680 nM
  TGI: 3.11 µM
SNB-75 CNS
  GI50: 1420 nM
  TGI: 4.26 µM
NCI-H23 lung
  GI50: 1570 nM
  TGI: 2990 nM
EKVX NSCLC
  GI50: 1540 nM
  TGI: 3.01 µM
A498 renal
  GI50: 1900 nM
  TGI: 3.71 µM
SNB-19 CNS
  GI50: 1850 nM
  TGI: 4.26 µM
HOP-62 NSCLC
  GI50: 1950 nM
  TGI: 3.87 µM
SN12C renal
  GI50: 1870 nM
  TGI: 3.97 µM
HL-60(TB) leukemia
  GI50: 626 nM
  TGI: 3.75 µM
CAKI-1 renal
  GI50: 1070 nM
  TGI: 2350 nM
UO-31 renal
  GI50: 1200 nM
  TGI: 2430 nM
KM12 colon
  GI50: 2070 nM
  TGI: 4.44 µM
U251 CNS
  GI50: 1590 nM
  TGI: 3.17 µM
MOLT-4 leukemia
  GI50: 796 nM
  TGI: 4.63 µM
MDA-MB-231 breast
  GI50: 1520 nM
  TGI: 2970 nM
MDA-MB-435
  GI50: 1540 nM
  TGI: 3.19 µM
SK-MEL-28 melanoma
  GI50: 1670 nM
  TGI: 3.05 µM
NCI-H226 lung
  GI50: 1980 nM
  TGI: 4.73 µM
HCT-15 colon
  GI50: 1150 nM
  TGI: 2510 nM
PC-3 prostate
  GI50: 1880 nM
  TGI: 3.97 µM
OVCAR-5 ovarian
  GI50: 1590 nM
  TGI: 3.07 µM
NCI-H460 lung
  GI50: 1880 nM
  TGI: 3.95 µM
RXF 393 renal
  GI50: 1240 nM
  TGI: 2510 nM
ACHN renal
  GI50: 1550 nM
  TGI: 2880 nM
TK-10 renal
  GI50: 1750 nM
  TGI: 3.21 µM
786-0 renal
  GI50: 1700 nM
  TGI: 3.13 µM
LOX IMVI melanoma
  GI50: 1230 nM
  TGI: 2520 nM
SF-295 CNS
  GI50: 1730 nM
  TGI: 3.29 µM
MCF7 breast
  GI50: 971 nM
  TGI: 2470 nM
SF-539 CNS
  GI50: 1670 nM
  TGI: 3.04 µM
OVCAR-3 ovarian
  GI50: 991 nM
  TGI: 2640 nM
COLO 205 colon
  GI50: 1720 nM
  TGI: 3.3 µM
HCC-2998 colon
  GI50: 1650 nM
  TGI: 3.01 µM
SK-OV-3 ovarian
  GI50: 2720 nM
  TGI: 6.96 µM
A549 NSCLC
  GI50: 2340 nM
  TGI: 5.99 µM
HT29 colon
  GI50: 1870 nM
  TGI: 4.51 µM
UACC-62 melanoma
  GI50: 1620 nM
  TGI: 3.06 µM
UACC-257 melanoma
  GI50: 1640 nM
  TGI: 3.17 µM

## O=C1C(Br)=CC2C1C1C3CCC3C2(Br)C12OCCO2 (configuration not stated)
MDA-MB-468 breast
  GI50: 1370 nM
  TGI: 4.21 µM

## CCn1c(-c2nonc2N)nc2c(C#CC(C)(C)O)nc(CN3CCCC3)cc21
MDA-MB-468 breast
  GI50: 4150 nM
  TGI: > 25 µM
